Experimental data reported in paper PMC8591201, “Anti-Tumor Activity of AZD4547 Against NTRK1 Fusion Positive Cancer Cells Through Inhibition of NTRKs” (Frontiers in Oncology, 2021).

Tests used:
Experiment in all cases: cells
Design in all cases: Anti-proliferation, 10-point dose response, CellTiter-Glo luminescence (MTT stated for KM12(Luc)), GI50 fitted in Prism
RS4-11 = conditions: Homo sapiens, RS4-11, 72 h, read-out: GI50 (µM) a
Experimental: (§1) To obtain the GI50 value of a substance, cell viability was measured using MTT (G4000, Promega, USA) for KM12(Luc) cell and Cell titer glo (G7572, Promega, USA) for other cell lines. For adherent cells, cells were seeded at 5,000 cells/well in a 96-well plate and treated with a substance one day after cell seeding. For suspension cells, 10,000 cells/well were seeded and the substance was treated after 4 h stabilization of cells. The substance was treated at 10 points of 1:3 serial dilution (0–100 µmol/L) for 72 h. For MTT assay, 15 µL dye solution was added to each well and incubated 4 h at 37°C. 100 µL of solubilization solution was added and followed 1 hr incubation. Absorbance at 570 nm of each well was recorded using EnVision microplate reader (Perkin Elmer). For Cell titer glo assay, Cell titer glo reagent was treated in each well and measured the luminescence by EnVision microplate reader (Perkin Elmer). Viable cells in each well were normalized by using 0.5% DMSO-treated wells (100%). The inhibitor dose−response curve was fitted and GI50 values were calculated using Prism 7.0 software (GraphPad). All assays were performed in duplicate and the standard deviation (SD) was determined from two independent experiments. KM12(Luc) was purchased from the JCRB cell bank. KM12 (Luc) was used within 6 months after purchase and the DNA profiles were confirmed using a short tandem repeat (STR) analysis by the Korean Cell Line Bank. KM12(Luc) cells were maintained in DMEM supplemented with 10% FBS and antibiotics. Parental Ba/F3 cells were purchased from DSMZ and were grown in RPMI1640 supplemented with 10% FBS and antibiotics in the presence of IL3, Transformed Ba/F3 cell lines were grown in the same media without IL3. Cells used in this study were negative for mycoplasma contamination. AN3-CA, HEC1A, U138, 8505C, MKN28, MKN45, A172, A375, Capan-1 HeLa, HEP3B, MCF-7 and MIA-paca-2 cells were maintained in DMEM (Welgene, Korea) supplemented with 10% FBS and antibiotics (Welgene, Korea). Otherwise, all cells were maintained in RPMI (Welgene, Korea) supplemented with 10% FBS and antibiotics (Welgene, Korea). To identify AZD4547 sensitive cell lines other than FGFR-mutant driven cancer cells, GI50 values were determined for AZD4547 against 64 different cancer cell lines, including AN3-CA used as a positive control ( Figure 1A and Table S1 ). […] Also, inhibitory activity of AZD4547 against DDR1 or FLT3 allows suppression of proliferation of U-2-OS and MV4-11 ([43]). Therefore, our attention focused on the inhibitory activity of AZD4547 against KM12(Luc) cell lines which have the TPM3-NTRK1 fusion gene. To exclude the possibility that the anti-proliferation activity of AZD4547 against KM12(Luc) is a common characteristic of FGFR inhibitors, we determined if BGJ398, a representative FGFR inhibitor, is also capable of suppressing proliferation of KM12(Luc) cells ( Figure 1B ).

C8161 = conditions: Homo sapiens, C8161, 72 h, read-out: GI50 (µM) a
Experimental: as §1

HuH-7 = conditions: Homo sapiens, Huh-7, 72 h, read-out: GI50 (µM) a
Experimental: as §1

MIA-PaCa-2 = conditions: Homo sapiens, MIA PaCa-2, 72 h, read-out: GI50 (µM) a
Experimental: as §1

SK-HEP-1 = conditions: Homo sapiens, SK-HEP1, 72 h, read-out: GI50 (µM) a
Experimental: as §1

HT-29 = conditions: Homo sapiens, HT-29, 72 h, read-out: GI50 (µM) a
Experimental: as §1

MCF7 = conditions: Homo sapiens, MCF7, 72 h, read-out: GI50 (µM) a
Experimental: as §1

HEC1A = conditions: Homo sapiens, HEC-1-A, 72 h, read-out: GI50 (µM) a
Experimental: as §1

MDA-MB-231 = conditions: Homo sapiens, MDA-MB-231, 72 h, read-out: GI50 (µM) a
Experimental: as §1

Molm-14 = conditions: Homo sapiens, MOLM-14, 72 h, read-out: GI50 (µM) a
Experimental: as §1

U937 = conditions: Homo sapiens, U-937, 72 h, read-out: GI50 (µM) a
Experimental: as §1

SK-MEL-30 = conditions: Homo sapiens, SK-MEL-30, 72 h, read-out: GI50 (µM) a
Experimental: as §1

COc1cc(CCc2cc(NC(=O)c3ccc(N4C[C@@H](C)N[C@@H](C)C4)cc3)n[nH]2)cc(OC)c1 [AZD4547]
GI50 (RS4-11): 3.24 µM | GI50 (C8161): 11.1 µM | GI50 (HuH-7): 1.35 µM | GI50 (MIA-PaCa-2): 12.2 µM | GI50 (SK-HEP-1): 12.6 µM | GI50 (HT-29): 9.63 µM | GI50 (MCF7): 7.84 µM | GI50 (HEC1A): 35.6 µM | GI50 (MDA-MB-231): 20.9 µM | GI50 (Molm-14): 1.25 µM | GI50 (U937): 12.2 µM | GI50 (SK-MEL-30): 16.5 µM
